Measurements as given in publication PMC3582512, “Application of a Novel Microtitre Plate-Based Assay for the Discovery of New Inhibitors of DNA Gyrase and DNA Topoisomerase VI” (PLoS ONE, 2013).
Entries after “also recorded” stand apart in the source; their conditions may differ.

What was measured:
[1] = system: Arabidopsis thaliana columbia (Col-0); test: Arabidopsis hypocotyl extension assay and plant growth; format: in vivo
Description: The hypocotyl extension assay was conducted as previously described, [66]. MS Salts medium (containing micro and macro elements including vitamins, pH 5.8) was supplemented with 1 g/L sucrose and 0.7 g/L phytagel (Sigma) before autoclaving. After the medium cooled to ∼50°C it was divided into 50 mL aliquots and compounds to be tested (or an equivalent amount of appropriate solvent for control plates) then added at the desired concentration under aseptic conditions. The media were then poured into separate 100 mm square Petri dishes and allowed to cool to room temperature in a laminar flow hood. Arabidopsis thaliana columbia (Col-0) seeds were surface sterilised with 5% bleach for 10 min immediately prior to use. The seeds were then washed three times with sterile water under a laminar flow hood. After surface sterilisation the seeds were planted in a grid pattern (32 seeds per dish) and the dishes sealed with surgical tape. The plates were transferred to 4°C and left for 64 h in the dark to vernalise, after which they were transferred to a 22°C growth cabinet. After 2 h of light exposure the plates were stacked vertically in the dark at 22°C to allow for hypocotyl extension along the agar surface. After 4–5 days the hypocotyls were observed using an optical microscope and their length measured. For experiments where the plants were allowed to form rosettes, the Arabidopsis seedlings were grown horizontally under a 16 h day in a 22°C growth cabinet for the indicated number of weeks.

S. shibatae topo VI [2] = molecular target: T1, S. shibatae topo VI (Saccharolobus shibatae, UniProt O05207+O05208); test: Gel-based relaxation assay with S. shibatae topo VI; format: biochemical, Sulfolobus shibatae
T1 construct: gift from Danielle Gadelle (University of Paris XI, Orsay)
T1 sequence (O05207 whole entry): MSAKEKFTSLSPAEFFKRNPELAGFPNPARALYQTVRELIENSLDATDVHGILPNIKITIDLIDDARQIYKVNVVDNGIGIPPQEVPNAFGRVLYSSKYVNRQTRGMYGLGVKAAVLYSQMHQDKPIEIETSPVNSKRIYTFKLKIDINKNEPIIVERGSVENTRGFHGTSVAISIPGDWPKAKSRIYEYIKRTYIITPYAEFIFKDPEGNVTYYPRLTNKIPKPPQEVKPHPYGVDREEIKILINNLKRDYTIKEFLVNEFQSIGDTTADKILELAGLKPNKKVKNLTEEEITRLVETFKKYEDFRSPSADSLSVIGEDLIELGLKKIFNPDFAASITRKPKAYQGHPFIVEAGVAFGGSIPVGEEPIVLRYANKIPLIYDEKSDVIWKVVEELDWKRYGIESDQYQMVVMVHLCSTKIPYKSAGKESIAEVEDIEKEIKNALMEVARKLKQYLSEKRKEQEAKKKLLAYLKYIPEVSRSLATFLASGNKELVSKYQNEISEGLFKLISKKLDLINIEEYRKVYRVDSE
T1 sequence (O05208 whole entry): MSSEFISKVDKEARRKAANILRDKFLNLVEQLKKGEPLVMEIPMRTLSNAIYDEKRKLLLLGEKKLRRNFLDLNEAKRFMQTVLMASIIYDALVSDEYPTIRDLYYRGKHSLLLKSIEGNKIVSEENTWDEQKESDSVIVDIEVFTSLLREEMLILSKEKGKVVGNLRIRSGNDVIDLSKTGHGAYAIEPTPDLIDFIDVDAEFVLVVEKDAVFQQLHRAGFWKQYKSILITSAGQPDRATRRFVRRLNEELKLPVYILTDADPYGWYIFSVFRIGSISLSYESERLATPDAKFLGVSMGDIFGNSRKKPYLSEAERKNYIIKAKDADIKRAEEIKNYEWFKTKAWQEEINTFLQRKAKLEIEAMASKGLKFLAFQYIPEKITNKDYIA
Description: (§1) The agarose gel-based assay was conducted as previously described, [44], [62]. In brief, topoisomerases were incubated with 0.5 µg of plasmid and the desired concentration of compound for 30 min at 37°C (for DNA gyrase and M. mazei topo VI) or 5 min at 75°C (for S. shibatae topo VI), in a total volume of 30 µL. […] Reactions were stopped by the addition of a loading buffer containing EDTA and the drug extracted by vortexing with either chloroform or aqueous butanol as required. In the case of M. mazei topo VI, it was necessary to include SDS in the loading buffer, at a final concentration of 1%. Samples were loaded onto a 1% agarose gel, run for the appropriate length of time and stained with ethidium bromide before visualisation on a UV transilluminator.

[3] = system: Arabidopsis thaliana hypocotyl cells; test: Cryo-SEM of Arabidopsis hypocotyls (cell size); format: in vivo; settings: 40 µM, 5 days in the dark; control ∼300 µm
Text: Five day old hypocotyls grown on media containing various concentrations of compound were frozen in nitrogen slush and loaded into a Philips XL30 SEM with a cryo stage installed. Samples were sputter coated with platinum and transferred into the microscope chamber for image collection.

M. mazei topo VI [4] = molecular target: T2, M. mazei topo VI (Methanosarcina mazei, UniProt Q8PUB7+Q8PUB8); test: Agarose gel-based DNA relaxation assay; format: biochemical; settings: for IC50: gel relaxation assay, 1 unit (50 nM) topo VI, read-out: Approx. IC50 against M. mazei topo VI; for Mechanism (Topo VI): summary of mechanistic tests with M. mazei and S. shibatae topo VI
T2 construct: His tag; made in house
T2 sequence (Q8PUB8 whole entry): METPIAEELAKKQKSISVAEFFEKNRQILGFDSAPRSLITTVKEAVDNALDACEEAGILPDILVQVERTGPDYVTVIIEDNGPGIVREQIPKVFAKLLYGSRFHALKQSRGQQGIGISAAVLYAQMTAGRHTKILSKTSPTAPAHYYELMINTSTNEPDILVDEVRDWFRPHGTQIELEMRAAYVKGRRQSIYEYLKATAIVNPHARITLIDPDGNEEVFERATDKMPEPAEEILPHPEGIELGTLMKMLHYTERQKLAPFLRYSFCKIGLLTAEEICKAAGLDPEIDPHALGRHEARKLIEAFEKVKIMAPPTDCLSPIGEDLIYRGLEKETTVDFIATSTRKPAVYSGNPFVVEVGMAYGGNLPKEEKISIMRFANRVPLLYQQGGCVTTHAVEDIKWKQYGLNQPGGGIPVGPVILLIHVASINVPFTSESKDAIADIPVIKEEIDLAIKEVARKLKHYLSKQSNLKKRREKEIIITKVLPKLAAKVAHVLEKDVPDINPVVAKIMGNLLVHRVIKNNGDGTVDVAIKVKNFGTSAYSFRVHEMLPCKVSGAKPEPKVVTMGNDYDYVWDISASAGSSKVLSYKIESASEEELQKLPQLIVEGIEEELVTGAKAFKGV
T2 sequence (Q8PUB7 whole entry): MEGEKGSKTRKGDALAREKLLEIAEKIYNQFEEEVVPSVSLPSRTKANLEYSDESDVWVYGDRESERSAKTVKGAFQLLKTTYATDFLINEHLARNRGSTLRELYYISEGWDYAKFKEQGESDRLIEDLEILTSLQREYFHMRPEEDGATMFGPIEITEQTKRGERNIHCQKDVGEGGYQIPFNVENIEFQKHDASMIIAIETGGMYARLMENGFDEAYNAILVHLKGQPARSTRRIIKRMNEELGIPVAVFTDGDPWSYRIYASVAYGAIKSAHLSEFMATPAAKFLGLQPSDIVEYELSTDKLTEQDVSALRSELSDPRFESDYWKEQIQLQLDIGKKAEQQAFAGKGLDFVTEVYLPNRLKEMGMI
Description: as §1

M. mazei topo VI [5] = molecular target: T2, M. mazei topo VI; test: Pyruvate kinase-linked ATPase assay; format: biochemical; settings: data not shown
Description: ATPase assays were performed essentially as described previously except they were adapted to a microplate format using clear, colourless 96-well Microtitre plates (Pro-bind™, Becton Dickinson). Reactions were carried out in 100 µL of the established reaction buffer for either DNA gyrase of M. mazei topo VI [36], [62] supplemented with: 800 µM phosphoenolpyruvate (PEP), 400 µM NADH, 1% (vol/vol) PK/LDH (pyruvate kinase-lactate dehydrogenase mixture in 50% (w/v) glycerol,100 mM KCl, 10 mM HEPES (pH 7.0)) and the desired concentration of hit compound. ATP was initially withheld from the reaction. After 5 min incubation at room temperature the reactions were initiated by the addition of ATP and the absorbance at 340 nm was measured over the course of an hour using a Spectra Max Plus absorbance reader (Molecular Devices). Data were processed by omitting the first 10–15 min of collection and normalising the first retained time point. This was done to exclude artifacts observed within this time frame and for ease of comparison of rates. Controls lacking topoisomerase were used to assess the intrinsic ATPase activity of the test compounds.

E. coli DNA gyrase [6] = molecular target: T3, E. coli DNA gyrase (Escherichia coli, UniProt P0AES4+P0AES6); test: Gel-based gyrase-mediated DNA cleavage assay; format: biochemical; settings: absence of ATP
T3 construct: made in house
T3 sequence (P0AES4 whole entry, one chain of several): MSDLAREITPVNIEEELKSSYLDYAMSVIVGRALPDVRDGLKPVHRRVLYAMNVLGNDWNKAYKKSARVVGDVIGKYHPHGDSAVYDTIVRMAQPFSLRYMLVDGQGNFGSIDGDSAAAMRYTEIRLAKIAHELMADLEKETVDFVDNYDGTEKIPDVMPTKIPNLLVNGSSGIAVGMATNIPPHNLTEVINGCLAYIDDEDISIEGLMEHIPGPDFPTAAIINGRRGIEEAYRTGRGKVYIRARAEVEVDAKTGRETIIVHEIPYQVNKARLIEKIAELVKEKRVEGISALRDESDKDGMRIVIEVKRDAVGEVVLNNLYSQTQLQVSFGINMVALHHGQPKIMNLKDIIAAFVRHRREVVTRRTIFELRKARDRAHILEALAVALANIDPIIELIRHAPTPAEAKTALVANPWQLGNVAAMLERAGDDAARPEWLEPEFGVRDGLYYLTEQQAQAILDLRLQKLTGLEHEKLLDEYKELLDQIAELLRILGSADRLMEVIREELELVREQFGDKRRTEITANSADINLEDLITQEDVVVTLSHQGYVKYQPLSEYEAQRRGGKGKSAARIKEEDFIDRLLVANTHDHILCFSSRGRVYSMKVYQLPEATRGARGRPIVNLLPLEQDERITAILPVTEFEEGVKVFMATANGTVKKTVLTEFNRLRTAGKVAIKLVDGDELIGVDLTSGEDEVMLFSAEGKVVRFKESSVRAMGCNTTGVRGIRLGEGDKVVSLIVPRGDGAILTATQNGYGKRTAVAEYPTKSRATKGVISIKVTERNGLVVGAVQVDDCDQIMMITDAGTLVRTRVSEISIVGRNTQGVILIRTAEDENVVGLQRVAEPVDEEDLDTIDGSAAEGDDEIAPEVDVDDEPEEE
Description: (§2) Assays to detect the stabilisation of cleavage complexes were identical to the protocol for topoisomerase activity detailed above, except as follows. Cleavage experiments with DNA gyrase were carried out in the absence of ATP and spermidine and 30 µL reactions were stopped with 3 µL 10% SDS and incubated with 3 µL 1 mg/mL proteinase K solution at 37°C for 1 h. For cleavage complex protection assays with suramin, the reaction buffer was modified to contain 4 mM CaCl2 rather than MgCl2.

E. coli strain NR698 = test: Bacterial growth inhibition, membrane-permeable strain; format: cell-based, Escherichia coli; settings: liquid and solid media
Description: (§3) For E. coli work, 10 mL cultures of E. coli MG1655 or NR698 were grown overnight at 37°C in LB medium. A 100 µL sample was then added to 10 mL of LB medium containing the desired concentration of compound. The culture was then allowed to grow at 37°C for 5 h and its OD600 measured every hour. For M. smegmatis, a 50 mL culture was grown for 48 h in Middlebrooks 7H11 medium at 37°C. A 100 µL sample was then added to 10 mL of Middlebrooks 7H11 containing the desired concentration of compound. The culture was then allowed to grow at 37°C for 9 h and its OD600 measured every three hours. For colony counting experiments M. smegmatis was grown for 48 h in 50 mL of Middlebrooks 7H9 medium at 37°C. A 100 µL sample was then added to 10 mL of Middlebrooks 7H9 medium containing the desired concentration test compound and allowed to grow at 37°C overnight. After 16 h, 20 µL samples were taken from these cultures and diluted 1 in 10,000 with Middlebrooks 7H9 medium. Petri dishes containing Middlebrooks 7H11 agar were prepared and 100 µL of each diluted culture was spread out. The plates were subsequently stored at 4°C. This was repeated every three hours for six hours, after which the plates were transferred to 37°C for 48 h. The numbers of colonies for each time point were counted manually.

[7] = molecular target: T4, M. mazei DNA topoisomerase VI (Methanosarcina mazei, UniProt Q8PUB7+Q8PUB8); test: DNA triplex-based microtitre plate screen, topo VI relaxation; format: biochemical; settings: 25 µM compound, duplicate
T4 construct: His tag; made in house
T4 sequence (Q8PUB8 whole entry): as the sequence (Q8PUB8 whole entry) above
T4 sequence (Q8PUB7 whole entry): as the sequence (Q8PUB7 whole entry) above
Description: The triplex-based assay was conducted as previously described [45]–[47]. In brief, oligonucleotide TFO1 was immobilised onto a streptavidin-coated microtitre plate. Excess oligonucleotide was removed by washing with buffer. Topoisomerase reactions were carried out in a 30 μL reaction volume containing 1–2 units topoisomerase and 1 μg relaxed or negatively supercoiled pNO1 under the published reaction conditions, [47]; gyrase supercoiling: 35 mM Tris•HCl (pH 7.5), 24 mM KCl, 4 mM MgCl2, 2 mM DTT, 1.8 mM spermidine, 1 mM ATP, 6.5% (w/v) glycerol, 0.1 mg/mL bovine serum albumin; topo VI relaxation: 20 mM bis-tris propane (pH 6.5), 100 mM potassium glutamate, 10 mM MgCl2, 1 mM DTT, 1 mM ATP. […] The DNA retained on the plate was stained with SYBR Gold (Sigma) dye and the fluorescence readings for each well read in a SpectraMax Gemini fluorimeter (Molecular Devices).
Twelve plates were screened in duplicate over three days manually using a multichannel pipette as previously described. […] Once the data had been collected from the screen, the fluorescence signals for the duplicates were averaged and converted into percentage inhibition using the positive and negative controls. […] To analyse the degree of separation between a negative and positive result the Z' factor [51] for the assay was calculated from the data for the control reactions (Equation 1). […]

E. coli MG1655 = test: Bacterial growth inhibition; format: cell-based, Escherichia coli; settings: liquid and solid media
Description: as §3

S. shibatae topo VI [8] = molecular target: T1, S. shibatae topo VI; test: Protection from ADPNP-induced, S. shibatae topo VI-mediated DNA cleavage; format: biochemical, Sulfolobus shibatae
Description: as §2

M. smegmatis mc^2155 = test: Bacterial growth inhibition and colony counting; format: cell-based, Mycobacterium smegmatis
Description: as §3

E. coli DNA gyrase [9] = molecular target: T3, E. coli DNA gyrase; test: Agarose gel-based DNA supercoiling assay; format: biochemical; settings: for IC50: gel supercoiling assay, 1 unit of gyrase (12 nM), read-out: Approx. IC50 against E. coli DNA gyrase; for Mechanism (DNA gyrase): summary of this study's mechanistic tests
Description: as §1

E. coli DNA gyrase [10] = molecular target: T3, E. coli DNA gyrase; test: Native gel-shift assay, gyrase binding to 147 bp DNA fragment; settings: 100 µM
Description: (§4) In order to test the effects of hit compounds upon DNA binding by topoisomerases, samples of enzyme and drug were prepared under the following conditions in a final volume of 10 μL: 1 nM 147 bp linear fragment of DNA derived from pBR322, [82] 50 mM Tris•HCl (pH 7.5), 100 mM KCl, 5 mM MgCl2, 2 mM DTT, 10% w/v glycerol. Samples were incubated for 30 min at room temperature before being run on a 5% (29:1) Protogel acrylamide (National Diagnostics) gel in 90 mM Tris·Borate, 5 mM MgCl2 at 150 V for 45 min. The DNA was stained by soaking in 2 µg/mL ethidium bromide for 10 min and visualised under UV light.

M. mazei topo VI [11] = molecular target: T2, M. mazei topo VI; test: Native gel shift assay, topo VI binding to 147 bp DNA fragment
Description: as §4

E. coli DNA gyrase [12] = molecular target: T3, E. coli DNA gyrase; test: Protection from Ca2+-induced, gyrase-mediated DNA cleavage; format: biochemical; settings: 80 µM, 4 mM calcium chloride
Description: as §2

SMILES | Inhibition of S. shibatae topo VI (S. shibatae topo VI [2]) | Inhibition in gel-based relaxation assay (hit validation) (M. mazei topo VI [4]) | IC50 (M. mazei topo VI [4]) | Inhibition of growth / antimicrobial activity (E. coli strain NR698) | Mechanism (Topo VI) (M. mazei topo VI [4]) | Inhibition of growth / antimicrobial activity (E. coli MG1655) | Inhibition in gel-based supercoiling assay (hit validation) (E. coli DNA gyrase [9]) | IC50 (E. coli DNA gyrase [9]) | Mechanism (DNA gyrase) (E. coli DNA gyrase [9]) | other results
CCCCCCc1ccc(O)cc1O [Hexylresorcinol] | did not display any inhibition | validated as hits | 30 µM |  |  |  |  |  |  | Average hypocotyl length ([1]; 40 µM): considerably reduced; Plants able to develop into a rosette ([1]; 40 µM, three-week-old plants): seven of the 32 plants; Average length of seedlings (hypocotyl) ([1]; 50 µM, 10 mm in the absence of drug, 5 days in the dark): approximately 1 mm; Seed germination ([1]; 80 µM): germination was reduced; Seed germination ([1]; 100 µM): completely preventing seed germination; also recorded: no seeds germinated; Number of seeds germinated ([1]; up to 50 µM): remained constant; Hypocotyl cell size, seedlings with dwarf morphology [3]: ~50 µm; Effect on M. mazei topo VI ATPase activity (M. mazei topo VI [5]): appeared to increase the rate of ATP hydrolysis; Effect on M. mazei topo VI ATPase activity (M. mazei topo VI [5]; listed as hexylresorcinol): appears to stimulate hydrolysis of ATP
O=C1c2c(O)ccc(O)c2C(=O)c2c(NCCNCCO)ccc(NCCNCCO)c21 [Mitoxantrone] |  | found to inhibit M. mazei topo VI | 2 µM | no inhibition of growth | Prevents cleavage | no inhibition of growth | displayed inhibition | 12 µM | Cleavage-complex stabiliser | Induction of gyrase-mediated DNA cleavage (E. coli DNA gyrase [6]; 10 µM): strongly induced DNA cleavage; Ability to stabilise the gyrase cleavage complex (E. coli DNA gyrase [6]; 100 µM): reduced; Outcome in topo VI screen (hit threshold 25% inhibition) [7]: missed during the initial screen; Prevention of ADPNP-induced DNA cleavage by S. shibatae topo VI (S. shibatae topo VI [8]): appeared to prevent ADPNP-induced cleavage; Colony count relative to absence of drug (M. smegmatis mc^2155; 65 μM, grown in liquid media then plated onto drug-free agar): 2%; Inhibition of growth (M. smegmatis mc^2155; liquid broth / liquid cultures): strongly inhibited the growth; also recorded: found to inhibit the growth
Cc1ccc(C(=O)Nc2ccc(S(=O)(=O)O)c3cc(S(=O)(=O)O)cc(S(=O)(=O)O)c23)cc1NC(=O)c1cccc(NC(=O)Nc2cccc(C(=O)Nc3cc(C(=O)Nc4ccc(S(=O)(=O)O)c5cc(S(=O)(=O)O)cc(S(=O)(=O)O)c45)ccc3C)c2)c1 [Suramin] | did not display any inhibition; also recorded: did not inhibit | validated as hits | 30 µM | no antimicrobial activity | Blocks DNA binding | no antimicrobial activity | displayed inhibition | 80 µM | Blocks DNA binding | Effect on gel shift of 147 bp DNA by DNA gyrase (E. coli DNA gyrase [10]): abolishes this shift; Induction of gyrase-mediated DNA cleavage (E. coli DNA gyrase [6]; concentration not given): did not display any ability to induce cleavage; Effect on binding of M. mazei topo VI to DNA (M. mazei topo VI [11]): appeared to prevent the binding of topo VI to DNA; also recorded: appeared to prevent G-segment binding; Antimicrobial activity (M. smegmatis mc^2155): no antimicrobial activity; Protection of DNA from Ca2+-induced cleavage by gyrase (E. coli DNA gyrase [12]): completely protect DNA from cleavage
